Data from ChEMBL document CHEMBL4145670, “A Bioactive Resveratrol Trimer from the Stem Bark of the Sri Lankan Endemic Plant Vateria copallifera” (J Nat Prod, 2018).
Activity calls are given as the source filed them. The calls are words filed in the database; no cut-off is given here.

Assays:
HeLa = assay: cells; settings: Homo sapiens, 48 h, read-out: GI
Description: Growth inhibition of human HeLa cells at 147.2 uM after 48 hrs by methylene blue staining based assay relative to control

HCT-116 = assay: cells; settings: Homo sapiens, HCT-116, 48 h, read-out: GI
Description: Growth inhibition of human HCT116 cells at 147.2 uM after 48 hrs by methylene blue staining based assay relative to control

SK-MEL-5 = assay: cells; settings: Homo sapiens, SK-MEL-5, 48 h, read-out: GI
Description: Growth inhibition of human SK-MEL-5 cells at 147.2 uM after 48 hrs by methylene blue staining based assay relative to control

MCF7 = assay: cells; settings: Homo sapiens, MCF7, 48 h, read-out: GI
Description: Growth inhibition of human MCF7 cells at 147.2 uM after 48 hrs by methylene blue staining based assay relative to control

[1] = target: Cholinesterase (Homo sapiens) (UniProt P06276); settings: 10 ug/ml
Description: Inhibition of BChE (unknown origin) at 10 ug/ml using butyrylthiocholine iodide as substrate pretreated for 15 mins followed by substrate addition and measured by DTNB reagent based assay relative to control

Homo sapiens [2] = organism: Homo sapiens; settings: 1.5 uM
Description: Inhibition of GST (unknown origin) at 1.5 uM using CDNB as substrate relative to control

PC-12 = assay: cells; settings: Rattus norvegicus, PC-12, 3 h, read-out: Activity
Homo sapiens [3] = organism: Homo sapiens; settings: 44.1 uM
Description: Inhibition of elastase (unknown origin) at 44.1 uM using N-succinyl-Ala-Ala-Ala-p-nitroanilide as substrate pretreated for 25 mins followed by substrate addition relative to control

HepG2 = assay: cells; settings: Homo sapiens, HepG2, 48 h, read-out: GI
Description: Growth inhibition of human HepG2 cells at 147.2 uM after 48 hrs by methylene blue staining based assay relative to control

Homo sapiens [4] = organism: Homo sapiens; settings: 147.2 uM
Description: Inhibition of alpha-chymotrypsin (unknown origin) at 147.2 uM using N-succinyl-L-phenylalanine-p-nitroanilide as substrate pretreated for 25 mins followed by substrate addition relative to control

[5] = target: Cholinesterase (Homo sapiens) (UniProt P06276); settings: 14.7 uM
Description: Inhibition of BChE (unknown origin) at 14.7 uM using butyrylthiocholine iodide as substrate pretreated for 15 mins followed by substrate addition and measured by DTNB reagent based assay

Chain of Cholinesterase (Homo sapiens) (P06276 whole entry): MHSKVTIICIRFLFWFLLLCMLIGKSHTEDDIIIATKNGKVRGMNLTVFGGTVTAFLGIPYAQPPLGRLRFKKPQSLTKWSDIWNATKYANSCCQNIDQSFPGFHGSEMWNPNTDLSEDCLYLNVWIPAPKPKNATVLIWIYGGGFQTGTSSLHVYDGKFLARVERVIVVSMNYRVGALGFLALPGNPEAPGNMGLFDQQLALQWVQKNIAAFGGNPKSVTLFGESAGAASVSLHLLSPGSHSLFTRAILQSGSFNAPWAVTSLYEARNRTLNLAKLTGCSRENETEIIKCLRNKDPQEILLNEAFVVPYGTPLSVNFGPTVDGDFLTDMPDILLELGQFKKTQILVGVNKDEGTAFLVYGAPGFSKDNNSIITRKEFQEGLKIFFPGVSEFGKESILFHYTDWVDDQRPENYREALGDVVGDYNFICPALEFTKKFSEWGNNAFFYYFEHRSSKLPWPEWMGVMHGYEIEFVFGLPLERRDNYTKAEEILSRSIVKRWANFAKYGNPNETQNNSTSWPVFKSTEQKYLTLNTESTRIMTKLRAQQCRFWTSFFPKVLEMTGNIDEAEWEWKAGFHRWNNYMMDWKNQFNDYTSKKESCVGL

**Q.** With `Oc1ccc(-c2oc3cc(O)c4c5c3c2-c2cc(O)cc(O)c2[C@H](c2ccc(O)cc2)[C@@H]5[C@H](c2ccc(O)cc2)[C@@H]4c2cc(O)cc(O)c2)cc1` as the compound, how does the inhibition of growth at 147.2 µM (HeLa) read?
**A.** Its inhibition of growth at 147.2 µM is < 50%.

**Q.** What about the inhibition of growth at 147.2 µM (HCT-116) of the same compound?
**A.** Its inhibition of growth at 147.2 µM is < 50%.

**Q.** And the inhibition of growth at 147.2 µM (SK-MEL-5)?
**A.** Its inhibition of growth at 147.2 µM is < 50%.

**Q.** What about the inhibition of growth at 147.2 µM (MCF7) of the same compound?
**A.** The inhibition of growth at 147.2 µM was < 50%.

**Q.** And the inhibition [1]?
**A.** The inhibition was 19.7%.

**Q.** What about the inhibition (Homo sapiens [2]) of the same compound?
**A.** The inhibition was 34.7%.

**Q.** What about the viability at 1.5 µM (PC-12) of the same compound?
**A.** The viability at 1.5 µM was 88.3%.

**Q.** What about the inhibition (Homo sapiens [3]) of the same compound?
**A.** The inhibition was 10.2%.

**Q.** What about the inhibition of growth at 147.2 µM (HepG2) of the same compound?
**A.** The inhibition of growth at 147.2 µM was < 50%.

**Q.** And the inhibition (Homo sapiens [4])?
**A.** The inhibition was 55.7%.

**Q.** And the inhibition [5]?
**A.** Its inhibition is “inactive”.
